Laboratory results as given in patent publication US11249161B2, “Magnetic resonance method for detecting molecular binding with enhanced sensitivity” (The Johns Hopkins University, priority 2017, dated 2022).

How the values were obtained:
[1] = biological target: bovine serum albumin (BSA) (Bos taurus, UniProt P02769)
Source text: (§1) Maps were generated by mapping the signal difference (pre minus post infusion) between the partial spectra (−1.0 to −2.0 ppm). Field correction for static field (B0) inhomogeneities was done by creating field maps from the low power Z-spectra acquired in our study and shifting the Z-spectra voxel wise according to the WASSR method^27.

[2] = test system: mouse brain; assay: In vivo IMMOBILISE MRI in mice after caffeine infusion
Description: All experiments were performed in accordance with Institutional Animal Care and Use Committee guidelines and approved by the Johns Hopkins University Animal Care and Use Committee. Eight 6-8 week old female BALB/c mice, were anesthetized by isoflurane and kept warm with a heating pad and kept in place with a stereotactic holder. […] A home-built catheter was connected to a syringe infusion through PE-50 tubing.
MRI experiments were acquired on a 11.7 T Bruker Biospec preclinical scanner (Bruker, Ettlingen, Germany) equipped with a 72 mm quadrature volume resonator for RF transmission and a 2×2 mouse phased array coil for RF reception. The saturation preparation consisted of a 3 s, 0.5 μT CW saturation pulse followed by a two-shot FSE readout. The FSE readout parameters were TR/TE=6000/4 ms, a 64×64 acquisition matrix across a field of view of 17×17 mm and slice thickness of 1 mm. […] Acquisition of each partial Z-spectra took 105 s and was continued for 1-hour post bolus and then a complete Z-spectrum was again acquired.
as §1

Chain of bovine serum albumin (BSA) (P02769 25-607): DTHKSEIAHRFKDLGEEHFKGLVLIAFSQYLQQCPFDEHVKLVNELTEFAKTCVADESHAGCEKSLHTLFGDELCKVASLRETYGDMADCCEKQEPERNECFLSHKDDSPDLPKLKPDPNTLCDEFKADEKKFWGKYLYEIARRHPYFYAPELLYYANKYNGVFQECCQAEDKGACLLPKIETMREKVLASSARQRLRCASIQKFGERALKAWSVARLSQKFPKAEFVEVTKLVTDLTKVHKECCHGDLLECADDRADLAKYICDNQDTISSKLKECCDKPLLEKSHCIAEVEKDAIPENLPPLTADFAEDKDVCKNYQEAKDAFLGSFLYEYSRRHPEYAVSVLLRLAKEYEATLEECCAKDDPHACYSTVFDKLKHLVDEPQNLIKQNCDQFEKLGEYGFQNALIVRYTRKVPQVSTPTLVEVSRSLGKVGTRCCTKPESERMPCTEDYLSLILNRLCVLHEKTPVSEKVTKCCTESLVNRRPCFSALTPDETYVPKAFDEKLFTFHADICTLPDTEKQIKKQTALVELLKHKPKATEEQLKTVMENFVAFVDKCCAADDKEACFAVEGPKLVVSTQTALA

Cn1c(=O)c2c(ncn2C)n(C)c1=O [caffeine]
factor in sensitivity enhancement [1]: ~1000
concentration of caffeine in mouse blood (estimate) ([2]; 2 mL blood, 50 μL of 100 mM caffeine infused): about 2.5 mM
change in water signal (detection sensitivity) ([2]; mice, after caffeine infusion, about 2.5 mM in blood): 1-3%
factor of enhancement ([2]; mice, in vivo): 30-100
